Laboratory results published in US6828091B2, “Method of identifying immunosuppressive agents” (Cytovia, Inc., priority 2000, dated 2004).

Tests used:
resting T lymphocytes [1] = experiment: Caspase cascade activation with fluorogenic reporter, resting T lymphocytes; format: cell-based, Human; conditions: for Induction of apoptosis in resting T cells (in words): 24 hr; for Caspase Induction in Resting T Cells 24 Hr Induction (Ratio): resting human T lymphocytes, 24 hr incubation, ratio Net Sample RFU/Net Control RFU
Description: (§1) Human peripheral blood mononuclear cells (PBMC), were purchased from Clonetics, San Diego (cat. No. CC2702). These cells were primarily enriched in T lymphocytes by a process of leukapheresis and density gradient centrifugation (Clonetics), and contain some monocytes and no B lymphocytes or Dendritic cells. Cells are cultured (0.75×10^6 cells/ml) in RPMI 1640 medium containing 10% fetal bovine serum (Gibco), 2 mM L-Glutamine, 25 mM Hepes, 1 mM sodium pyruvate, 1 mM non-essential aminoacids (NEAA) and 1% penicillin/streptomycin solution. Cells were then activated with 100 ng/ml of murine monoclonal antibody (OKT3) to the human T cell receptor (Liu, Y-C., et al., J. Biol. Chem 272: 9979 (1996)). Cells were incubated at 37° C. in a 5% CO2-95% humidity incubator for 3 days. […] In a parallel experiment, resting T lymphocytes that were not activated by the above method were used directly in an experiment. An aliquot of 45 μl of activated or resting T lymphocytes (containing 10^5 cells) was added to a well of a 96-well microtiter plate containing 5 μl of a 10% DMSO in RPMI 1640 medium containing serial 2-fold dilution of the different test compounds starting at a concentration of 10 uM.
(§2) An aliquot of 45 μl of cells was also added to a well of a 96-well microtiter plate containing 5 μl of a 10% DMSO in RPMI 1640 medium without the test compounds as the control sample. The samples were gently mixed by agitation and then incubated at 37° C. for 24 hr in a 5% CO2-95% humidity incubator. After incubation, the samples were removed from the incubator and 50 μl of a solution containing 20 μM of N-(Ac-DEVD)-N′-ethoxycarbonyl-R110 (SEQ ID NO. 1) fluorogenic substrate U.S. Pat. No. 6,342,611; WO 99/18856), 20 mM DTT(Sigma) in Hanks Balanced Salt Solution (HBSS, Gibco) was added. The samples were mixed by agitation and incubated for 1 hr at room temperature. Using a fluorescent plate reader (Model 1420, Wallac Instruments), an initial reading (T=0) was made approximately […] after addition of the substrate solution, employing excitation at 485 nm and emission at 530 nm, to determine the background fluorescence of the control sample. After the 1 hr incubation, the samples were read for fluorescence as above (T=1 hr).
(§3) Calculation: Measured relative fluorescence unit (RFU) values were used to calculate the gain in fluorescence of the sample with the test compound as follows:
(§4) Sample RFU(T=1 hr)−Sample RFU(T=0)=Net Sample RFU (4)
(§5) and the background gain in fluorescence of the control sample (lacking the test compound) as follows:
(§6) Control RFU(I=1 hr)−Control RFU(I=0)=Net Control RFU (5)
(§7) The relative potency of a given test compound is given by the following ratio:
(§8) (Net Sample RFU)/(Net Control RFU) (6)

activated T lymphocytes [2] = experiment: Caspase cascade activation with fluorogenic reporter, activated T lymphocytes; format: cell-based, Human; conditions: for Caspase Activity in Activated Cells 24 Hr Induction (Ratio): OKT3-activated human T lymphocytes, 24 hr incubation, ratio Net Sample RFU/Net Control RFU; for Induction of apoptosis in activated T cells (in words): 24 hr
Description: as §1, §2, §3, §4, §5, §6, §7, §8

resting T lymphocytes [3] = experiment: Cytotoxicity with chromogenic reporter of mitochondrial activity, resting T lymphocytes; format: cell-based, Human; conditions: 48 hr, absorbance 490 nm, FIG. 1 or 2
Description: (§9) Human peripheral blood mononuclear cells (PBMC), were purchased from Clonetics, San Diego (cat. no. CC2702). These cells were primarily enriched in T lymphocytes by a process of leukapheresis and density gradient centrifugation (Clonetics), and contain some monocytes and no B lymphocytes or Dendritic cells. Cells are cultured (0.75×10^6 cells/ml) in RPMI 1640 medium containing 10% fetal bovine serum (Gibco), 2 mM L-Glutamine, 25 mM Hepes, 1 mM sodium pyruvate, 1 mM non essential aminoacids (NEAA) and 1% penicillin/streptomycin solution. Cells were then activated with 100 ng/ml of murine monoclonal antibody to the human T cell receptor (Liu, Y-C., et al., J. Biol. Chem. 272: 9979 (1996)). Cells were incubated at 37° C. in a 5% CO2-95% humidity incubator for 3 days. […] In a parallel experiment, resting T lymphocytes that were not activated in the above mentioned method were used directly in an experiment.
(§10) An aliquot of 45 μl of activated or resting T lymphocytes (containing 10^5 cells) was added to wells of a 96-well microtiter plate containing 5 μl of a 10% DMSO in RPMI 1640 medium containing different dilutions of the test compounds. […] Using a plate reader (Model 1420, Wallac Instruments), samples were read at absorbance 490 nm.

activated T lymphocytes [4] = experiment: Cytotoxicity with chromogenic reporter of mitochondrial activity, activated T lymphocytes; format: cell-based, Human; conditions: 48 hr, absorbance 490 nm, FIG. 1 or 2
Description: as §9, §10

[5] = system: collagen induced arthritis; experiment: Collagen-induced arthritis (CIA) mouse model; format: in vivo; conditions: 1 mg/kg subcutaneously daily from 2nd immunization (Day 21), DBA/1 mice, FIG. 3

Row | SMILES | Induction of apoptosis in resting T cells (in words) (resting T lymphocytes [1]) | Caspase Induction in Resting T Cells 24 Hr Induction (Ratio) (resting T lymphocytes [1]) | Caspase Activity in Activated Cells 24 Hr Induction (Ratio) (activated T lymphocytes [2]) | Induction of apoptosis in activated T cells (in words) (activated T lymphocytes [2]) | Cytotoxicity to resting T cells (in words) (resting T lymphocytes [3]) | Cytotoxicity to activated T cells (in words) (activated T lymphocytes [4]) | Decrease in cumulative CIA score [5]
1 | Cc1ccc(C2CC(c3c(O)cc(C)oc3=O)=NCCS2)cc1 (stereo not shown) [5-(4-hydroxy-6-methyl-2H-pyran-2-one-3-yl)-7-(4-methylphenyl)-2,3,6,7-tetrahydro-1,4-thiazepine] | did not induce apoptosis in either cell type | 1.0 | 1.0 | did not induce apoptosis in either cell type |  |  | 
2 | CC(C)=CCC[C@]1(C)C=Cc2c(O)c3c(c(CC=C(C)C)c2O1)O[C@]12C(=C[C@@H]4C[C@H]1C(C)(C)O[C@@]2(C/C=C(/C)C(=O)O)C4=O)C3=O [gambogic acid] | induced apoptosis in both activated and resting T cells | 2.0 | 3.4 | induced apoptosis in both activated and resting T cells |  |  | 
3 | CN(Cc1cnc2nc(N)nc(N)c2n1)c1ccc(C(=O)N[C@@H](CCC(=O)O)C(=O)O)cc1 [methotrexate] |  |  |  |  | not to resting T lymphocytes | only cytotoxic to activated | 
4 | C[C@]12C=CC(=O)C=C1CC[C@@H]1[C@@H]2[C@@H](O)C[C@@]2(C)[C@H]1CC[C@]2(O)C(=O)CO [predisolone, Prednisolone] |  |  |  |  |  |  | 75%
5 | CN[C@@H]1C[C@H]2O[C@@](C)([C@@H]1OC)n1c3ccccc3c3c4c(c5c6ccccc6n2c5c31)C(=O)NC4 [staurosporine] |  |  |  |  | cytotoxic to both activated and resting T cells | cytotoxic to both activated and resting T cells | 
